The test deals with T1, P2X7 receptor (Homo sapiens, UniProt Q99572).
T1 construct: host or cells: THP-1 cells differentiated with LPS and IFN-γ
T1 sequence (Q99572 1-595): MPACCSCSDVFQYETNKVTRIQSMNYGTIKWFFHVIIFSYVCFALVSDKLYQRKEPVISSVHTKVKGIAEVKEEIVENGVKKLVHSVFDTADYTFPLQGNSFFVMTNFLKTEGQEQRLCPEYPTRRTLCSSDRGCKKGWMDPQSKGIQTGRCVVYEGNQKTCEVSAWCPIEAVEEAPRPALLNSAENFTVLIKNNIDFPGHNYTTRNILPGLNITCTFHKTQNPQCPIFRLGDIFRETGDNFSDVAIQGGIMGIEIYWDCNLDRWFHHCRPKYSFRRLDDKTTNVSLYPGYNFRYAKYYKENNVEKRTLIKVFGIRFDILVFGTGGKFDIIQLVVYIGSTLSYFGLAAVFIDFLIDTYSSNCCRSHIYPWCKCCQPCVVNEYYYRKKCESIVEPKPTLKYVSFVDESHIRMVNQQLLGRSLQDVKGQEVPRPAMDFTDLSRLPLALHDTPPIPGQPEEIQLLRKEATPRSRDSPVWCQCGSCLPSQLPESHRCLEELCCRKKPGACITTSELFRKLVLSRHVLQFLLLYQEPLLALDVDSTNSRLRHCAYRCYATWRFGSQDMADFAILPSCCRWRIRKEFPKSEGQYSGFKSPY
Description: Alternate method for IL-1β release assay (differentiated THP-1 cells, BzATP-stimulated, ELISA). Type of test: cell-based. As to conditions: P2X7; for inhibition at 0.3 µM: read-out: IL-1β % inhib @ 0.3 μM; for inhibition at 0.1 µM: 0.1 μM compound (plus symbols), read-out: IL-1β % inhib @ 0.1 μM. The essentials:
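After 16 h differentiation with 100 ng/mL LPS and 100 ng/mL IFN-γ plus a further 2 h LPS priming, THP-1 cells were pretreated 30 min with compound, then stimulated with 250 uM BzATP (final) for 45 min. Supernatant IL-1β measured by ELISA; percent inhibition from background-adjusted levels versus untreated cells.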

The mark [1] stands for this setting: 0.3 μM compound (asterisk symbols).
The mark [2] stands for this setting: 0.3 μM compound (symbols * to ****).

Molecules are shown by their SMILES. Where two headings read alike, the source gives them in different places. Bounds are passed on as bounds.

Turning to `O=C(c1ccc(C(F)(F)F)cc1F)N1CCc2c(ncnc2NCC23CC4CC(CC(C4)C2)C3)C1` [Compound 121], under setting [1], the inhibition at 0.3 µM was 25 to 50%.
Same read-out and setting: under `O=C(c1cc(F)cc(C(F)(F)F)c1)N1CCc2c(ncnc2NCC23CC4CC(CC(C4)C2)C3)C1` [Compound 122] stands 0 to 25%.
Still for that read-out and setting: then `O=C(c1cc(C(F)(F)F)ccc1Cl)N1CCc2c(ncnc2NCC23CC4CC(CC(C4)C2)C3)C1` [Compound 126], with 0 to 25%.
On the same count and under the same terms, then `O=C(c1c(F)cccc1Cl)N1CCc2c(ncnc2NCC23CC4CC(CC(C4)C2)C3)C1` [Compound 127], with greater than 75%; and `Cc1nn(-c2ccccc2)nc1C(=O)N1CCc2c(ncnc2NCC23CC4CC(CC(C4)C2)C3)C1` [Compound 128], with greater than 75%.
For `O=C(c1cccnc1Oc1ccccc1)N1CCc2c(ncnc2NCC23CC4CC(CC(C4)C2)C3)C1` [Compound 129], the inhibition at 0.3 µM under setting [1] was greater than 75%.
With `O=C(c1ccc(F)cc1F)N1CCc2c(ncnc2NCC23CC4CC(CC(C4)C2)C3)C1` [Compound 132], the inhibition at 0.3 µM under setting [1] fell in the range of 50 to 75%.
With `Cc1ccccc1C(=O)N1CCc2c(ncnc2NCC23CC4CC(CC(C4)C2)C3)C1` [Compound 133], under setting [1], the inhibition at 0.3 µM was 25 to 50%.
On the same count and under the same terms, under `O=C(c1cc(F)ccc1F)N1CCc2c(ncnc2NCC23CC4CC(CC(C4)C2)C3)C1` [Compound 134] stands greater than 75%.
Take `O=C(c1ccccc1F)N1CCc2c(ncnc2NCC23CC4CC(CC(C4)C2)C3)C1` [Compound 135]: the inhibition at 0.1 µM was 50 to 75%.
Take `O=C(c1ccc(Cl)nc1)N1CCc2c(ncnc2NCC23CC4CC(CC(C4)C2)C3)C1` [Compound 136]: the inhibition at 0.3 µM under setting [1] lay in the range of 0 to 25%.
On the same count and under the same terms, then `O=C(c1cccc(Cl)c1Cl)N1CCc2c(ncnc2NCC23CC4CC(CC(C4)C2)C3)C1` [Compound 137], with greater than 75%.
On the same count and under the same terms, under `Cc1cc(C(=O)N2CCc3c(ncnc3NCC34CC5CC(CC(C5)C3)C4)C2)nn1C` [Compound 139] stands 0 to 25%.
On the same count and under the same terms, then `O=C(c1ccc2ccccc2c1)N1CCc2c(ncnc2NCC23CC4CC(CC(C4)C2)C3)C1` [Compound 143], with 50 to 75%; and `Cc1ccc(C(=O)N2CCc3c(ncnc3NCC34CC5CC(CC(C5)C3)C4)C2)cc1` [Compound 144], with 50 to 75%; and `Cc1cc(C(=O)N2CCc3c(ncnc3NCC34CC5CC(CC(C5)C3)C4)C2)c(C)o1` [Compound 146], with greater than 75%.
Turning to `O=C(c1ccccc1Cl)N1CCc2c(ncnc2NCC23CC4CC(CC(C4)C2)C3)C1` [Compound 147], the inhibition at 0.3 µM under setting [1] is 0 to 25%.
The same measure, in the same setting: under `CC(=O)N1CCC(C(=O)N2CCc3c(ncnc3NCC34CC5CC(CC(C5)C3)C4)C2)CC1` [Compound 148] stands 0 to 25%.
For `O=C(c1ccno1)N1CCc2c(ncnc2NCC23CC4CC(CC(C4)C2)C3)C1` [Compound 149], the inhibition at 0.1 µM was greater than 75%.
As for `Cc1cc(C(=O)N2CCc3c(ncnc3NCC34CC5CC(CC(C5)C3)C4)C2)n(C(C)(C)C)n1` [Compound 151], the inhibition at 0.3 µM under setting [1] is 25 to 50%.
In the case of `CC(C)(C)c1ccc(C(=O)N2CCc3c(ncnc3NCC34CC5CC(CC(C5)C3)C4)C2)cc1` [Compound 152], the inhibition at 0.3 µM under setting [1] was greater than 75%.
Still for that read-out and setting: then `O=C(Cc1ccccc1Br)N1CCc2c(ncnc2NCC23CC4CC(CC(C4)C2)C3)C1` [Compound 153], with 0 to 25%.
In the case of `O=C(c1ccc2ccccc2n1)N1CCc2c(ncnc2NCC23CC4CC(CC(C4)C2)C3)C1` [Compound 154], the inhibition at 0.3 µM under setting [1] is 25 to 50%.
Take `COc1ccc(C(=O)N2CCc3c(ncnc3NCC34CC5CC(CC(C5)C3)C4)C2)cc1F` [Compound 158]: under setting [1], the inhibition at 0.3 µM is greater than 75%.
Consider `COc1ccc(C(=O)N2CCc3c(ncnc3NCC34CC5CC(CC(C5)C3)C4)C2)cc1OC` [Compound 159], for which the inhibition at 0.3 µM under setting [1] is greater than 75%.
On to `O=C(C1COc2ccccc2C1)N1CCc2c(ncnc2NCC23CC4CC(CC(C4)C2)C3)C1` (centres unmarked) [Compound 160], for which the inhibition at 0.3 µM under setting [1] is greater than 75%.
The same measure, in the same setting: then `CC(CCN1CCc2c(ncnc2NCC23CC4CC(CC(C4)C2)C3)C1)CC(C)(C)C` (centres unmarked) [Compound 163], with greater than 75%.
As for `c1ccc(C(CN2CCc3c(ncnc3NCC34CC5CC(CC(C5)C3)C4)C2)c2ccccc2)cc1` [Compound 164], the inhibition at 0.3 µM under setting [1] was greater than 75%.
On the same count and under the same terms, under `CC(CN1CCc2c(ncnc2NCC23CC4CC(CC(C4)C2)C3)C1)c1ccccc1` (centres unmarked) [Compound 165] stands 0 to 25%; under `CCCN1CCc2c(ncnc2NCC23CC4CC(CC(C4)C2)C3)C1` [Compound 166], 0 to 25%; under `c1nc2c(c(NCC34CC5CC(CC(C5)C3)C4)n1)CCN(CC1CCCCC1)C2` [Compound 167], greater than 75%.
With `c1nc2c(c(NCC34CC5CC(CC(C5)C3)C4)n1)CCN(CC1CC1)C2` [Compound 168], the inhibition at 0.3 µM under setting [1] is 0 to 25%.
The same measure, in the same setting: under `CCCCCN1CCc2c(ncnc2NCC23CC4CC(CC(C4)C2)C3)C1` [Compound 169] stands greater than 75%.
On the same count and under the same terms, under `c1ccc(CCCN2CCc3c(ncnc3NCC34CC5CC(CC(C5)C3)C4)C2)cc1` [Compound 170] stands 0 to 25%; under `COc1ccc(CN2CCc3c(ncnc3NCC34CC5CC(CC(C5)C3)C4)C2)cc1` [Compound 173], 0 to 25%; under `c1nc2c(c(NCC34CC5CC(CC(C5)C3)C4)n1)CCN(Cc1ccc3c(c1)OCO3)C2` [Compound 175], 25 to 50%.
For `c1ccc2cc(CN3CCc4c(ncnc4NCC45CC6CC(CC(C6)C4)C5)C3)ccc2c1` [Compound 176], the inhibition at 0.3 µM under setting [1] lay in the range of 0 to 25%.
Same read-out and setting: under `COc1ccc(CN2CCc3c(ncnc3NCC34CC5CC(CC(C5)C3)C4)C2)cc1OC` [Compound 177] stands 0 to 25%; under `Cc1ccc2occ(CN3CCc4c(ncnc4NCC45CC6CC(CC(C6)C4)C5)C3)c(=O)c2c1` [Compound 178], 25 to 50%; under `c1ccc(Oc2cccc(CN3CCc4c(ncnc4NCC45CC6CC(CC(C6)C4)C5)C3)c2)cc1` [Compound 179], 25 to 50%.
Regarding `Clc1ccc(CN2CCc3c(ncnc3NCC34CC5CC(CC(C5)C3)C4)C2)c(Cl)c1` [Compound 181], the inhibition at 0.3 µM under setting [1] fell in the range of 25 to 50%.
As for `N#Cc1cccc(CN2CCc3c(ncnc3NCC34CC5CC(CC(C5)C3)C4)C2)c1` [Compound 182], the inhibition at 0.3 µM under setting [1] was greater than 75%.
Turning to `CC1(C)C2CC=C(CN3CCc4c(ncnc4NCC45CC6CC(CC(C6)C4)C5)C3)C1C2` (centres unmarked) [Compound 184], the inhibition at 0.3 µM under setting [1] is greater than 75%.
On to `c1ccc(Oc2ccc(CN3CCc4c(ncnc4NCC45CC6CC(CC(C6)C4)C5)C3)cc2)cc1` [Compound 187], for which the inhibition at 0.3 µM under setting [1] lay in the range of 50 to 75%.
Same read-out and setting: then `CCCCN1CCc2c(ncnc2NCC23CC4CC(CC(C4)C2)C3)C1` [Compound 189], with 0 to 25%; and `CCN1CCc2c(ncnc2NCC23CC4CC(CC(C4)C2)C3)C1` [Compound 190], with 25 to 50%; and `CCC(CC)CN1CCc2c(ncnc2NCC23CC4CC(CC(C4)C2)C3)C1` [Compound 192], with greater than 75%.
On the same count and under the same terms, then `CCCC(C)CN1CCc2c(ncnc2NCC23CC4CC(CC(C4)C2)C3)C1` (centres unmarked) [Compound 193], with greater than 75%; and `CC(C)CCN1CCc2c(ncnc2NCC23CC4CC(CC(C4)C2)C3)C1` [Compound 194], with 25 to 50%; and `COc1cccc(CN2CCc3c(ncnc3NCC34CC5CC(CC(C5)C3)C4)C2)c1` [Compound 195], with greater than 75%.
The same measure, in the same setting: then `Cc1ccc(CN2CCc3c(ncnc3NCC34CC5CC(CC(C5)C3)C4)C2)cc1C` [Compound 196], with 0 to 25%; and `COc1ccc(CN2CCc3c(ncnc3NCC34CC5CC(CC(C5)C3)C4)C2)c(Cl)c1OC` [Compound 197], with 0 to 25%.
Consider `Brc1cc2c(cc1CN1CCc3c(ncnc3NCC34CC5CC(CC(C5)C3)C4)C1)OCO2` [Compound 198], for which the inhibition at 0.3 µM under setting [2] was 0 to 25%.
In the case of `COc1cc(CN2CCc3c(ncnc3NCC34CC5CC(CC(C5)C3)C4)C2)ccc1OCc1ccccc1` [Compound 199], the inhibition at 0.3 µM under setting [2] was 0 to 25%.
The same measure, in the same setting: then `c1nc2c(c(NCC34CC5CC(CC(C5)C3)C4)n1)CCN(Cc1ccc3c(c1)OCCO3)C2` [Compound 200], with 0 to 25%.
As to `Clc1ccc(CN2CCc3c(ncnc3NCC34CC5CC(CC(C5)C3)C4)C2)cc1Cl` [Compound 201], the inhibition at 0.3 µM under setting [2] was 0 to 25%.
With `COc1cccc(CN2CCc3c(ncnc3NCC34CC5CC(CC(C5)C3)C4)C2)c1OC` [Compound 202], the inhibition at 0.3 µM under setting [2] was greater than 75%.
The same measure, in the same setting: then `COc1ccc(CN2CCc3c(ncnc3NCC34CC5CC(CC(C5)C3)C4)C2)cc1OCc1ccccc1` [Compound 203], with 0 to 25%.
As to `COc1ccc(CN2CCc3c(ncnc3NCC34CC5CC(CC(C5)C3)C4)C2)cc1O` [Compound 204], the inhibition at 0.3 µM under setting [2] lay within 0 to 25%.

For the origin of these results see US20100022531A1, “NOVEL COMPOUNDS AS P2X7 MODULATORS AND USES THEREOF” (RENOVIS, INC., priority 2005, published 2010).
